#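 Interpolation was linear, between the two tested concentrations surrounding the appropriate level; five concentrations were tested over 48 hours in 96-well plates. Here, GI50 denotes the concentration required for 50% inhibition of growth. TGI: total growth inhibition.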
# Tests used:
# Assay in all cases: DTP human tumour cell line panel, 48 h
# 786-0 renal = system: 786-0 renal
# A549 NSCLC = system: A549 NSCLC
# ACHN renal = system: ACHN renal
# BT-549 breast = system: BT-549 breast
# CAKI-1 renal = system: CAKI-1 renal
# CCRF-CEM leukemia = system: CCRF-CEM leukemia
# COLO 205 colon = system: COLO 205 colon
# DU-145 prostate = system: DU-145 prostate
# EKVX NSCLC = system: EKVX NSCLC
# HCC-2998 colon = system: HCC-2998 colon
# HCT-116 colon = system: HCT-116 colon
# HCT-15 colon = system: HCT-15 colon
# HL-60(TB) leukemia = system: HL-60(TB) leukemia
# HOP-62 NSCLC = system: HOP-62 NSCLC
# HS 578T breast = system: HS 578T breast
# HT29 colon = system: HT29 colon
# IGROV1 ovarian = system: IGROV1 ovarian
# K-562 leukemia = system: K-562 leukemia
# KM12 colon = system: KM12 colon
# LOX IMVI melanoma = system: LOX IMVI melanoma
# M14 melanoma = system: M14 melanoma
# MALME-3M melanoma = system: MALME-3M melanoma
# MCF7 breast = system: MCF7 breast
# MDA-MB-231 breast = system: MDA-MB-231 breast
# MDA-MB-435 = system: MDA-MB-435
# MOLT-4 leukemia = system: MOLT-4 leukemia
# NCI-H226 lung = system: NCI-H226 lung
# NCI-H460 lung = system: NCI-H460 lung
# NCI-H522 lung = system: NCI-H522 lung
# NCI/ADR-RES ovarian = system: NCI/ADR-RES ovarian
# OVCAR-3 ovarian = system: OVCAR-3 ovarian
# OVCAR-4 ovarian = system: OVCAR-4 ovarian
# OVCAR-5 ovarian = system: OVCAR-5 ovarian
# OVCAR-8 ovarian = system: OVCAR-8 ovarian
# PC-3 prostate = system: PC-3 prostate
# RPMI-8226 leukemia = system: RPMI-8226 leukemia
# RXF 393 renal = system: RXF 393 renal
# SF-268 CNS = system: SF-268 CNS
# SF-295 CNS = system: SF-295 CNS
# SF-539 CNS = system: SF-539 CNS
# SK-MEL-2 melanoma = system: SK-MEL-2 melanoma
# SK-MEL-28 melanoma = system: SK-MEL-28 melanoma
# SK-MEL-5 melanoma = system: SK-MEL-5 melanoma
# SK-OV-3 ovarian = system: SK-OV-3 ovarian
# SN12C renal = system: SN12C renal
# SNB-19 CNS = system: SNB-19 CNS
# SR leukemia = system: SR leukemia
# SW-620 colon = system: SW-620 colon
# T-47D breast = system: T-47D breast
# TK-10 renal = system: TK-10 renal
# U251 CNS = system: U251 CNS
# UACC-257 melanoma = system: UACC-257 melanoma
# UACC-62 melanoma = system: UACC-62 melanoma
# UO-31 renal = system: UO-31 renal
# HOP-92 NSCLC = system: HOP-92 NSCLC
# NCI-H23 lung = system: NCI-H23 lung
# SNB-75 CNS = system: SNB-75 CNS
compound,measurement,setting,value
C=C1C(=O)O[C@@H]2C[C@@H]1CC[C@]1(C)O[C@H]1CC[C@@]1(C)O[C@@H]1CC[C@@]2(C)O,GI50,786-0 renal,27.7 µM
same,TGI,786-0 renal,89.9 µM
same,GI50,A549 NSCLC,> 100 µM
same,TGI,A549 NSCLC,> 100 µM
same,GI50,ACHN renal,25.1 µM
same,TGI,ACHN renal,75.2 µM
same,GI50,BT-549 breast,31.9 µM
same,TGI,BT-549 breast,89.5 µM
same,GI50,CAKI-1 renal,27.3 µM
same,TGI,CAKI-1 renal,79.9 µM
same,GI50,CCRF-CEM leukemia,17.5 µM
same,TGI,CCRF-CEM leukemia,49.4 µM
same,GI50,COLO 205 colon,16.4 µM
same,TGI,COLO 205 colon,34.2 µM
same,GI50,DU-145 prostate,35 µM
same,TGI,DU-145 prostate,> 100 µM
same,GI50,EKVX NSCLC,59.8 µM
same,TGI,EKVX NSCLC,> 100 µM
same,GI50,HCC-2998 colon,6.49 µM
same,TGI,HCC-2998 colon,24.4 µM
same,GI50,HCT-116 colon,23.1 µM
same,TGI,HCT-116 colon,65.9 µM
same,GI50,HCT-15 colon,29.2 µM
same,TGI,HCT-15 colon,> 100 µM
same,GI50,HL-60(TB) leukemia,15.2 µM
same,TGI,HL-60(TB) leukemia,46.5 µM
same,GI50,HOP-62 NSCLC,75.8 µM
same,TGI,HOP-62 NSCLC,> 100 µM
same,GI50,HS 578T breast,22.7 µM
same,TGI,HS 578T breast,67.3 µM
same,GI50,HT29 colon,24.7 µM
same,TGI,HT29 colon,87.6 µM
same,GI50,IGROV1 ovarian,24.3 µM
same,TGI,IGROV1 ovarian,> 100 µM
same,GI50,K-562 leukemia,19.5 µM
same,TGI,K-562 leukemia,> 100 µM
same,GI50,KM12 colon,> 100 µM
same,TGI,KM12 colon,> 100 µM
same,GI50,LOX IMVI melanoma,28.7 µM
same,TGI,LOX IMVI melanoma,80.8 µM
same,GI50,M14 melanoma,34.2 µM
same,TGI,M14 melanoma,> 100 µM
same,GI50,MALME-3M melanoma,22.3 µM
same,TGI,MALME-3M melanoma,71.2 µM
same,GI50,MCF7 breast,99.8 µM
same,TGI,MCF7 breast,> 100 µM
same,GI50,MDA-MB-231 breast,25.1 µM
same,TGI,MDA-MB-231 breast,68.4 µM
same,GI50,MDA-MB-435,33 µM
same,TGI,MDA-MB-435,> 100 µM
same,GI50,MOLT-4 leukemia,13.5 µM
same,TGI,MOLT-4 leukemia,36.7 µM
same,GI50,NCI-H226 lung,26.7 µM
same,TGI,NCI-H226 lung,86.2 µM
same,GI50,NCI-H460 lung,> 100 µM
same,TGI,NCI-H460 lung,> 100 µM
same,GI50,NCI-H522 lung,19.1 µM
same,TGI,NCI-H522 lung,46.2 µM
same,GI50,NCI/ADR-RES ovarian,20.1 µM
same,TGI,NCI/ADR-RES ovarian,46.9 µM
same,GI50,OVCAR-3 ovarian,16.2 µM
same,TGI,OVCAR-3 ovarian,51.9 µM
same,GI50,OVCAR-4 ovarian,13.7 µM
same,TGI,OVCAR-4 ovarian,33.1 µM
same,GI50,OVCAR-5 ovarian,29.2 µM
same,TGI,OVCAR-5 ovarian,> 100 µM
same,GI50,OVCAR-8 ovarian,30.7 µM
same,TGI,OVCAR-8 ovarian,> 100 µM
same,GI50,PC-3 prostate,21.2 µM
same,TGI,PC-3 prostate,94.9 µM
same,GI50,RPMI-8226 leukemia,12.4 µM
same,TGI,RPMI-8226 leukemia,42.7 µM
same,GI50,RXF 393 renal,55.9 µM
same,TGI,RXF 393 renal,> 100 µM
same,GI50,SF-268 CNS,> 100 µM
same,TGI,SF-268 CNS,> 100 µM
same,GI50,SF-295 CNS,26.7 µM
same,TGI,SF-295 CNS,75.7 µM
same,GI50,SF-539 CNS,35.1 µM
same,TGI,SF-539 CNS,> 100 µM
same,GI50,SK-MEL-2 melanoma,50.1 µM
same,TGI,SK-MEL-2 melanoma,> 100 µM
same,GI50,SK-MEL-28 melanoma,17.5 µM
same,TGI,SK-MEL-28 melanoma,43.1 µM
same,GI50,SK-MEL-5 melanoma,14 µM
same,TGI,SK-MEL-5 melanoma,34.8 µM
same,GI50,SK-OV-3 ovarian,> 100 µM
same,TGI,SK-OV-3 ovarian,> 100 µM
same,GI50,SN12C renal,22.5 µM
same,TGI,SN12C renal,61.5 µM
same,GI50,SNB-19 CNS,68.6 µM
same,TGI,SNB-19 CNS,> 100 µM
same,GI50,SR leukemia,3.49 µM
same,TGI,SR leukemia,31.1 µM
same,GI50,SW-620 colon,29.2 µM
same,TGI,SW-620 colon,> 100 µM
same,GI50,T-47D breast,12.2 µM
same,TGI,T-47D breast,33.3 µM
same,GI50,TK-10 renal,39.4 µM
same,TGI,TK-10 renal,> 100 µM
same,GI50,U251 CNS,42.8 µM
same,TGI,U251 CNS,> 100 µM
same,GI50,UACC-257 melanoma,61.9 µM
same,TGI,UACC-257 melanoma,> 100 µM
same,GI50,UACC-62 melanoma,42 µM
same,TGI,UACC-62 melanoma,> 100 µM
same,GI50,UO-31 renal,13.7 µM
same,TGI,UO-31 renal,45.1 µM
CCCCCCCCC[C@@H]1C[C@@H]2CCC3C(C(=O)OC)=C(C)NC(=N1)N32 (stereo not given in full),TGI,786-0 renal,18.9 µM
same,TGI,A549 NSCLC,32.6 µM
same,TGI,ACHN renal,32.1 µM
same,TGI,BT-549 breast,24.4 µM
same,TGI,CAKI-1 renal,37.8 µM
same,TGI,CCRF-CEM leukemia,> 100 µM
same,TGI,COLO 205 colon,15.1 µM
same,TGI,DU-145 prostate,21.9 µM
same,TGI,EKVX NSCLC,26.8 µM
same,TGI,HCC-2998 colon,8.53 µM
same,TGI,HCT-116 colon,17.3 µM
same,TGI,HCT-15 colon,38.3 µM
same,TGI,HL-60(TB) leukemia,26.9 µM
same,TGI,HOP-62 NSCLC,26.9 µM
same,TGI,HOP-92 NSCLC,27.3 µM
same,TGI,HS 578T breast,34.7 µM
same,TGI,HT29 colon,22.2 µM
same,TGI,IGROV1 ovarian,19.4 µM
same,TGI,K-562 leukemia,72.2 µM
same,TGI,KM12 colon,14 µM
same,TGI,LOX IMVI melanoma,26.5 µM
same,TGI,M14 melanoma,21.8 µM
same,TGI,MALME-3M melanoma,29 µM
same,TGI,MCF7 breast,15.9 µM
same,TGI,MDA-MB-231 breast,20 µM
same,TGI,MDA-MB-435,6.04 µM
same,TGI,MOLT-4 leukemia,> 100 µM
same,TGI,NCI-H226 lung,29.2 µM
same,TGI,NCI-H23 lung,16.3 µM
same,TGI,NCI-H460 lung,16.3 µM
same,TGI,NCI-H522 lung,9.82 µM
same,TGI,NCI/ADR-RES ovarian,52.2 µM
same,TGI,OVCAR-3 ovarian,11.6 µM
same,TGI,OVCAR-4 ovarian,25.4 µM
same,TGI,OVCAR-5 ovarian,35.6 µM
same,TGI,OVCAR-8 ovarian,23.7 µM
same,TGI,PC-3 prostate,18.3 µM
same,TGI,RPMI-8226 leukemia,> 100 µM
same,TGI,RXF 393 renal,8.55 µM
same,TGI,SF-268 CNS,23.5 µM
same,TGI,SF-295 CNS,23.6 µM
same,TGI,SF-539 CNS,12.2 µM
same,TGI,SK-MEL-2 melanoma,26.5 µM
same,TGI,SK-MEL-28 melanoma,> 100 µM
same,TGI,SK-MEL-5 melanoma,20.4 µM
same,TGI,SK-OV-3 ovarian,25 µM
same,TGI,SN12C renal,32.5 µM
same,TGI,SNB-19 CNS,18.6 µM
same,TGI,SNB-75 CNS,19.8 µM
same,TGI,SR leukemia,> 100 µM
same,TGI,SW-620 colon,> 100 µM
same,TGI,T-47D breast,25.3 µM
same,TGI,TK-10 renal,29.1 µM
same,TGI,U251 CNS,16.8 µM
same,TGI,UACC-257 melanoma,27 µM
same,TGI,UACC-62 melanoma,17.4 µM
same,TGI,UO-31 renal,30.9 µM

# Reference: PubChem BioAssay (NCI)
